Data taken from patent publication US20190060249A1 (priority 2017, published 2019).

Legend:
ALDH1A2 = target: T1, ALDH1A2 (Homo sapiens, UniProt O94788); test: ALDH fluorescence-coupled enzymatic assay, all-trans-retinal substrate, ALDH1A2; assay type: biochemical
T1 sequence (O94788 1-518): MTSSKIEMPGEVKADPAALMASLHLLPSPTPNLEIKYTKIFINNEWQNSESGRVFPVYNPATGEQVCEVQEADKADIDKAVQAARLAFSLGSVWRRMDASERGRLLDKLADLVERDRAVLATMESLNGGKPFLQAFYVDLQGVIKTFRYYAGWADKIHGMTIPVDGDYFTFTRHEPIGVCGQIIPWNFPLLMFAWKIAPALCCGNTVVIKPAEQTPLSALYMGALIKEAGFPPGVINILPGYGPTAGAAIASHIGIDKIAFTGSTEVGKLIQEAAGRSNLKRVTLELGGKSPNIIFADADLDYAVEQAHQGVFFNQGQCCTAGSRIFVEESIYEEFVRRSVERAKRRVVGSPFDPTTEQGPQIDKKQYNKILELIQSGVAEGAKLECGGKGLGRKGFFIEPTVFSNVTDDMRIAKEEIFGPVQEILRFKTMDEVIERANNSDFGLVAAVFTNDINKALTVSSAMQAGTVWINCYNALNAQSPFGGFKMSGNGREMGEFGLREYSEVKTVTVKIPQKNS
Description: Assay conditions were modified from the original enzyme assay protocol above using 50 mM NaPPi buffer (pH 7.4), 2.5 mM NAD^+, 10 mM acetaldehyde or all-trans-retinal substrate with the addition of 1 U/mL diaphorase and 0.1 mM resazurin for the secondary reaction. Measurements were collected in triplicate at 25° C.

[1] = test system: mouse model of radiation-induced hyposalivation; test: Mouse model of radiation-induced hyposalivation; assay type: in vivo
Excerpt: In one experiment, mice were irradiated with a single dose of 15 Gy and in a second experiment with 6 Gy/d for 5 d for a total of 30 Gy. […] Starting 8 weeks after radiation, the control and treatment groups were further segmented into four groups.
On day 5 of the 30 Gy radiation dose, SMG were removed, fixed, and stained for cleaved caspase 3 to determine the extent of apoptosis (FIG. 4E).
Saliva collection: Female C57/BL-6 mice, 8-10 weeks old, were ordered from Jackson Labs. […] 15 Gy single dose or 30 Gy fractionated over 5 d (6 Gy/d) were delivered to the SMG with the rest of the body lead shielded. Stimulated saliva was measured as described in, Lombaert, I. M., Brunsting, J. F., Wierenga, P. K., Faber, H., Stokman, M. A., Kok, T., Visser, W. H., Kampinga, H. H., de Haan, G., and Coppes, R. P. (2008) Rescue of salivary gland function after stem cell transplantation in irradiated glands. PloS one 3, e2063. Mice were anesthetized with a ketamine (80 mg/kg) and xylazine (16 mg/kg) mixture delivered by intraperitoneal injection and subcutaneously injected with 2 mg/kg pilocarpine. Saliva was collected for 15 minutes. Saliva volume was calculated by assuming […] and was normalized to the mouse body weight by dividing the total collected saliva volume by the mass of the mouse (kg).
Periodic acid schiff staining and acinar quantification: SMG were removed from mice, fixed in 10% formalin for 24 h, and paraffin-embedded. 10 images per group were taken at random at 30× magnification using a Leica DM6000 B microscope. Acinar regions were quantified using RT_Image software (Graves, E. E., Quon, A., and Loo, B. W., Jr. (2007) RT_Image: an open-source tool for investigating PET in radiation oncology. Technology in cancer research & treatment 6, 111-121). Images were separated into red, green, and blue color channels, blurred using a 20 pixel box filter, and segmented using an intensity contour of 110 with a minimum area of 100 um^2. Acinar area was calculated as a percentage of acinar area relative to the area of the microscopy field.
Cleaved caspase 3 staining: SMG were removed from mice, fixed in 10% formalin for 24 h, and paraffin-embedded. Sections were stained with Caspase 3 rabbit antibody (Cell Signaling, 9664), 1:200 dilution, and DAPI. Three random images using red and blue filters were taken at 100× magnification with a Leica DM6000 B microscope from each gland (6-8 glands/group) and quantified by counting cleaved caspase-3 positive (red) cells per field.
RNA-sequencing: Samples were extracted using Qiagen miRNeasy Kit (217084). Extracted samples were assessed for quality using Agilent Pico-RNA bio-analyzer chip (5067-1513). The Smarter Ultra Low Input RNA kit (Clontech, 634848) was used to generate cDNA from total RNA. Amplified cDNA was purified using SPRI Ampure Beads from Beckman Coulter, and quality and quantity were measured using a High Sensitivity DNA chip on an Agilent 2100 Bioanalyzer. cDNA was sheared to an average length of 300 BP using a Covaris S2, and libraries were generated following the Clontech Low Input Library Prep kit (634947). Indexed libraries were pooled and quantitated for sequencing. Sequencing data was generated on an Illumina HiSeq 4000. The processed RNAseq reads were imported into BRB-ArrayTools, an integrated package for the visualization and statistical analysis of gene expression data developed by Dr. Richard Simon and BRB-ArrayTools Development Team. The imported expression values were log2-transformed and subjected to quantile normalization by Robust Multi-chip Average (RMA). Genes that show differential expression between those untreated and irradiated (univariate p-value <0.01) were selected. To identify functional networks and pathways enriched in these significant genes, these genes were analyzed using MetaCore™. For heatmap generation the Clustering function of ArrayTools was used, with experimental samples in fixed grouping and order, and genes ordered by hierarchical clustering.

[2] = EpCAM+ cells isolated from SMG 2 weeks after 30 Gy

Question: For `C=C(C)[C@H]1CC=C(C)CC1` [Alda-341, D-limonene], which “catalytic activity of all trans-retinal in ALDH1A2” value (ALDH1A2) is on record?
Answer: did not increase

Question: And the “saliva production after radiation” value ([1]; 10% Alda-341 in chow from 1 w prior to radiation and continuously after, single 15 Gy or 30 Gy (6 Gy/d for 5 d))?
Answer: retained near baseline saliva production levels

Question: What about the “saliva production, Alda-341 stopped” value ([1]; Alda-341 from 24 h after radiation, stopped 8 weeks after radiation) of the same compound?
Answer: rapid decline in saliva production

Question: What about the “saliva levels, continuous Alda-341” value ([1]; Alda-341 starting 24 h after the final dose of radiation, continuous, 20 weeks) of the same compound?
Answer: sustained significantly higher saliva levels over 20 weeks

Question: What about the “saliva production, Alda-341 begun late” value ([1]; Alda-341 treatment begun 8 weeks after radiation) of the same compound?
Answer: did not show significant improvement in saliva production

Question: What about the “apoptotic-related gene expression (RNA-sequencing)” value [1, 2] of the same compound?
Answer: a decrease in apoptotic-related gene expression

Question: And the “glutathione metabolism (RNA-sequencing)” value [1, 2]?
Answer: increased glutathione metabolism

Question: And the “immune response (RNA-sequencing)” value [1, 2]?
Answer: decreased immune response

Question: What about the “more acinar cell preservation (PAS staining) vs group that never received Alda-341” value ([1]; after 20 weeks, continuous Alda-341) of the same compound?
Answer: ~70%

Question: What about the “improvement in sphere-forming ability of dissociated SMG vs no treatment” value ([1]; continuous Alda-341 after radiation) of the same compound?
Answer: ~30 fold

Question: And the “number of apoptotic cells (cleaved caspase 3 staining)” value ([1]; day 5 of the 30 Gy radiation dose, Alda-341 before radiation)?
Answer: reduced the number of apoptotic cells to near non-irradiated levels

Question: What about the “preservation of acinar area” value ([1]; eight weeks after 30 Gy, Alda-341 from 1 w prior to radiation) of the same compound?
Answer: 90%
